Test results from ChEMBL document CHEMBL5465560, “Selectivity Literature for EUbOPEN Chemogenomic Library” (2024).

Experiments:
[1] = molecular target: CDK17/Cyclin-Y (Homo sapiens) (UniProt Q00537+Q8ND76); test: Selectivity interaction (Kinase panel (Z-LYTE Assay)) EUB0001632a CDK17; type: protein-complex assay; conditions: at 10 µM
[2] = molecular target: Myosin light chain kinase, smooth muscle (Homo sapiens, UniProt Q15746); test: Selectivity interaction (LanthaScreen Eu Kinase Binding Assay) EUB0001632a MYLK; conditions: at 10 µM
[3] = molecular target: Cyclin-dependent kinase 9 (Homo sapiens, UniProt P50750); test: Selectivity interaction (KinomeScan (DiscoverX)) EUB0000666a CDK9; conditions: at 10 µM
[4] = molecular target: MAP kinase-activated protein kinase 3 (Homo sapiens) (UniProt Q16644); test: Selectivity interaction (SelectScreen profiling (Invitrogen)) EUB0000607a MAPKAPK3; conditions: at 2 µM
[5] = molecular target: Mitogen-activated protein kinase kinase kinase 20 (Homo sapiens) (UniProt Q9NYL2); test: Selectivity interaction (KinomeScan (DiscoverX)) EUB0000607a MAP3K20; conditions: at 10 µM
[6] = molecular target: Serine/threonine-protein kinase WNK3 (Homo sapiens) (UniProt Q9BYP7); test: Selectivity interaction (Upstate Kinase Profiler service (Millipore)) EUB0000056c WNK3; conditions: at 1 µM
[7] = molecular target: Cyclin-dependent kinase 7 (Homo sapiens, UniProt P50613); conditions: at 10 µM
[8] = molecular target: eIF-2-alpha kinase GCN2 (Homo sapiens) (UniProt Q9P2K8); test: Selectivity interaction (ActivX KiNativ screen (kinase selectivity in THP-1 cell lysates)) EUB0000639a EIF2AK4; type: subcellular; conditions: lysate
[9] = molecular target: Serine/threonine-protein kinase 26 (Homo sapiens, UniProt Q9P289); test: Selectivity interaction (ActivX KiNativ screen (kinase selectivity in THP-1 cell lysates)) EUB0000639a STK26; type: subcellular; conditions: lysate
[10] = molecular target: Serine/threonine-protein kinase PLK1 (Homo sapiens, UniProt P53350); test: Selectivity interaction (ActivX KiNativ screen (kinase selectivity in THP-1 cell lysates)) EUB0000639a PLK1; type: subcellular; conditions: lysate, at 0.01 µM
[11] = molecular target: Serine/threonine-protein kinase WNK2 (Homo sapiens) (UniProt Q9Y3S1); test: Selectivity interaction (ActivX KiNativ screen (kinase selectivity in THP-1 cell lysates)) EUB0000639a WNK2; type: subcellular; conditions: lysate
[12] = molecular target: NT-3 growth factor receptor (Homo sapiens, UniProt Q16288); test: Selectivity interaction (KinomeScan (DiscoverX)) EUB0000595a NTRK3; conditions: at 10 µM
[13] = molecular target: Dual specificity mitogen-activated protein kinase kinase 2 (Homo sapiens) (UniProt P36507); test: Selectivity interaction (KinomeScan (DiscoverX)) EUB0001049a MAP2K2; conditions: at 1 µM
[14] = molecular target: Phosphatidylinositol 4-phosphate 5-kinase type-1 gamma (Homo sapiens) (UniProt O60331); test: Selectivity interaction (KinomeScan (DiscoverX)) EUB0001049a PIP5K1C; conditions: at 1 µM
[15] = molecular target: Mitogen-activated protein kinase kinase kinase 4 (Homo sapiens) (UniProt Q9Y6R4); test: Selectivity interaction (Ambit KINOMEscan and KiNATiv profiling in Jurkat cells) EUB0000090b MAP3K4; type: cell-based; conditions: at 1 µM
[16] = molecular target: Non-receptor tyrosine-protein kinase TYK2 (Homo sapiens, UniProt P29597); test: Selectivity interaction (Ambit KINOMEscan and KiNATiv profiling in Jurkat cells) EUB0000090b TYK2; type: cell-based; conditions: at 1 µM
[17] = molecular target: Serine/threonine-protein kinase PRP4 homolog (Homo sapiens) (UniProt Q13523); test: Selectivity interaction (KinomeScan (DiscoverX)) EUB0000655a PRPF4; conditions: at 10 µM
[18] = tested on: Tyrosine-protein kinase ABL1 (Homo sapiens), P00519 [Q252H]; test: Selectivity interaction (KinomeScan (DiscoverX)) EUB0000045b ABL1; conditions: at 1 µM
[19] = molecular target: Transient receptor potential cation channel subfamily M member 6 (Homo sapiens) (UniProt Q9BX84); test: Selectivity interaction (KinomeScan (DiscoverX)) EUB0000045b TRPM6
[20] = molecular target: DNA-dependent protein kinase catalytic subunit (Homo sapiens) (UniProt P78527); test: Selectivity interaction (Kinase panel (KiNativ target engagement assay in Jurkat cells)) EUB0001635a PRKDC; type: cell-based; conditions: Selectivity number of off-targets 0.0, Selectivity number of targets 233.0, Source Knowledge https://www.sciencedirect.com/science/article/pii/S2451945619300674?via%3Dihub, at 1 µM
[21] = molecular target: Histone-lysine N-methyltransferase SETD2 (Homo sapiens) (UniProt Q9BYW2); test: Selectivity interaction (Transferase panel (protein, RNA, and DNA methyltransferases. and EP300 (acetyltransferase))) EUB0000270b SETD2
[22] = tested on: Tyrosine-protein kinase ABL1 (Homo sapiens), P00519 [F317I]; test: Selectivity interaction (KinomeScan (DiscoverX)) EUB0000229b ABL1; conditions: at 1 µM
[23] = Selectivity interaction (KinomeScan (DiscoverX)) EUB0000229b PKNB; conditions: at 1 µM
[24] = molecular target: Casein kinase I isoform gamma-2 (Homo sapiens) (UniProt P78368); test: Selectivity interaction (KinomeScan (DiscoverX)) EUB0000092b CSNK1G2; conditions: at 10 µM
[25] = molecular target: Maternal embryonic leucine zipper kinase (Homo sapiens) (UniProt Q14680); test: Selectivity interaction (KinomeScan (DiscoverX)) EUB0000092b MELK; conditions: at 10 µM
[26] = molecular target: Misshapen-like kinase 1 (Homo sapiens, UniProt Q8N4C8); test: Selectivity interaction (KinomeScan (DiscoverX)) EUB0000092b MINK1; conditions: at 10 µM
[27] = molecular target: T1, Serine/threonine-protein kinase 3 (Homo sapiens) (UniProt Q13188); test: Selectivity interaction (ActivX KiNativ screen (ex vivo kinase selectivity in human PBMCs)) EUB0001619a STK3; type: cell-based; conditions: PBMC, at 1 µM
T1 sequence (whole entry): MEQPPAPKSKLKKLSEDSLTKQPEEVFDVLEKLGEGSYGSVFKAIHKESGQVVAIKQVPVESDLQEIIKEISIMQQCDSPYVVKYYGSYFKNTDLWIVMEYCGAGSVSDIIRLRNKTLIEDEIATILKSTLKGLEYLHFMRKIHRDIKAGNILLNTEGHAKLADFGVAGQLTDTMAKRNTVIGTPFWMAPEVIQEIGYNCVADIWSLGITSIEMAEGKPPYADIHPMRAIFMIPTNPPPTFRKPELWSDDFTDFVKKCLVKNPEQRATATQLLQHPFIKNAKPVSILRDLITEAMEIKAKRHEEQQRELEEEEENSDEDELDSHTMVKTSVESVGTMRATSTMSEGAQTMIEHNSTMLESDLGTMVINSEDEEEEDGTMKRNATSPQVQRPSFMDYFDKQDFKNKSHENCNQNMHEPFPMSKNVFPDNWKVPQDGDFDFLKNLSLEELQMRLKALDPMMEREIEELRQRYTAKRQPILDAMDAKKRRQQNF

Chain of Serine/threonine-protein kinase 26 (Q9P289 2-416 limits assumed): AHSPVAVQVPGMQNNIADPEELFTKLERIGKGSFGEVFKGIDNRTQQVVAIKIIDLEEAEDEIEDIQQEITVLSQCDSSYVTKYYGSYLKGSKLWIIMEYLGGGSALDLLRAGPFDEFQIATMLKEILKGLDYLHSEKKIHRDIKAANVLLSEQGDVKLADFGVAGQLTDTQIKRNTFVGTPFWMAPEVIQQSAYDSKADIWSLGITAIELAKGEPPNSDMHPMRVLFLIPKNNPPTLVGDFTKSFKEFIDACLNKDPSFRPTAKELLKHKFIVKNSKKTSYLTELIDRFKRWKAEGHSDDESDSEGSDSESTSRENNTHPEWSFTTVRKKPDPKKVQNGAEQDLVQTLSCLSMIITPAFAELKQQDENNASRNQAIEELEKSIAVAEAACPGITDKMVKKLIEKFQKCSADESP
Chain of eIF-2-alpha kinase GCN2 (Homo sapiens) (Q9P2K8 whole entry): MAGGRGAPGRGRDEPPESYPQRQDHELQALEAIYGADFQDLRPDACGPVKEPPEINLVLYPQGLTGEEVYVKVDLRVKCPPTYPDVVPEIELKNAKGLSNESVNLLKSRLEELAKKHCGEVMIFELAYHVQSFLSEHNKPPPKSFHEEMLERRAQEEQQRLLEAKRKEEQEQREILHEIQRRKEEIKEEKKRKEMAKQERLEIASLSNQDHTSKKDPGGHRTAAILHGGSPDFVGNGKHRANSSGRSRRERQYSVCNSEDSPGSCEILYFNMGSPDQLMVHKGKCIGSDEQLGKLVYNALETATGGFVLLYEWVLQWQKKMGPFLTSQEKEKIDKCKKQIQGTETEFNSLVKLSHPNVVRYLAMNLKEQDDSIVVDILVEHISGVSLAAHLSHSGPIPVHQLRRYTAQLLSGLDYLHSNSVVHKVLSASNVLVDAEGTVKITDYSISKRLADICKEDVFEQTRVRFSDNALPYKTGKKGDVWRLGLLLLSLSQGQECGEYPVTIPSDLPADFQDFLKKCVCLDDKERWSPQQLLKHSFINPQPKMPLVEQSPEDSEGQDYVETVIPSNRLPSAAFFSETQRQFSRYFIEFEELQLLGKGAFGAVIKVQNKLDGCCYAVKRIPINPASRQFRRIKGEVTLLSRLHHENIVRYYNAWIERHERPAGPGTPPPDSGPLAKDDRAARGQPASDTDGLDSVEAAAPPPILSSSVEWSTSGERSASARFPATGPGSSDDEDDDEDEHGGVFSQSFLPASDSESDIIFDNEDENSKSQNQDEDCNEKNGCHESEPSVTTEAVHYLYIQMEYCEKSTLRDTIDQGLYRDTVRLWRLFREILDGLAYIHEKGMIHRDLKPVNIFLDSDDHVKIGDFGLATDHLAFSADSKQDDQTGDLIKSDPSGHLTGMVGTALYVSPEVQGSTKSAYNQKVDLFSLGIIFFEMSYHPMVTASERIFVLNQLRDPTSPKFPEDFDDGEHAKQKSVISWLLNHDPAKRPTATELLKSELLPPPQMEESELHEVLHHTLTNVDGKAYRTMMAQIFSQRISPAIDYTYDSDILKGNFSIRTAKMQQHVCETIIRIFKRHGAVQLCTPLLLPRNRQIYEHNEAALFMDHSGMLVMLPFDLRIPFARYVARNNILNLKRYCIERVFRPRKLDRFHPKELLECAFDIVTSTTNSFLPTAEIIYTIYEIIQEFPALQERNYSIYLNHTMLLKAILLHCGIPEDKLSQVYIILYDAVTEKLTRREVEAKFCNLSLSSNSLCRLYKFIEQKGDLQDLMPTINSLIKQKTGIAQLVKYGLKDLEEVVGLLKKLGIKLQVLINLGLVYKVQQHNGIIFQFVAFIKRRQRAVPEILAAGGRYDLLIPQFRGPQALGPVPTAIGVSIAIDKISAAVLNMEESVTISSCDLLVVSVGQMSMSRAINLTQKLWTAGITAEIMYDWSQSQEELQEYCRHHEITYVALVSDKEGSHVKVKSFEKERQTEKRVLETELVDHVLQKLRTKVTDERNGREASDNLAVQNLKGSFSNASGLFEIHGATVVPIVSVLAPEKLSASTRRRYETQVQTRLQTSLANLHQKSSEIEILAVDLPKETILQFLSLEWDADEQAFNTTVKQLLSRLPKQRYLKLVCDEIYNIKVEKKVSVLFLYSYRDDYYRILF
Chain of Serine/threonine-protein kinase WNK2 (Homo sapiens) (Q9Y3S1 whole entry): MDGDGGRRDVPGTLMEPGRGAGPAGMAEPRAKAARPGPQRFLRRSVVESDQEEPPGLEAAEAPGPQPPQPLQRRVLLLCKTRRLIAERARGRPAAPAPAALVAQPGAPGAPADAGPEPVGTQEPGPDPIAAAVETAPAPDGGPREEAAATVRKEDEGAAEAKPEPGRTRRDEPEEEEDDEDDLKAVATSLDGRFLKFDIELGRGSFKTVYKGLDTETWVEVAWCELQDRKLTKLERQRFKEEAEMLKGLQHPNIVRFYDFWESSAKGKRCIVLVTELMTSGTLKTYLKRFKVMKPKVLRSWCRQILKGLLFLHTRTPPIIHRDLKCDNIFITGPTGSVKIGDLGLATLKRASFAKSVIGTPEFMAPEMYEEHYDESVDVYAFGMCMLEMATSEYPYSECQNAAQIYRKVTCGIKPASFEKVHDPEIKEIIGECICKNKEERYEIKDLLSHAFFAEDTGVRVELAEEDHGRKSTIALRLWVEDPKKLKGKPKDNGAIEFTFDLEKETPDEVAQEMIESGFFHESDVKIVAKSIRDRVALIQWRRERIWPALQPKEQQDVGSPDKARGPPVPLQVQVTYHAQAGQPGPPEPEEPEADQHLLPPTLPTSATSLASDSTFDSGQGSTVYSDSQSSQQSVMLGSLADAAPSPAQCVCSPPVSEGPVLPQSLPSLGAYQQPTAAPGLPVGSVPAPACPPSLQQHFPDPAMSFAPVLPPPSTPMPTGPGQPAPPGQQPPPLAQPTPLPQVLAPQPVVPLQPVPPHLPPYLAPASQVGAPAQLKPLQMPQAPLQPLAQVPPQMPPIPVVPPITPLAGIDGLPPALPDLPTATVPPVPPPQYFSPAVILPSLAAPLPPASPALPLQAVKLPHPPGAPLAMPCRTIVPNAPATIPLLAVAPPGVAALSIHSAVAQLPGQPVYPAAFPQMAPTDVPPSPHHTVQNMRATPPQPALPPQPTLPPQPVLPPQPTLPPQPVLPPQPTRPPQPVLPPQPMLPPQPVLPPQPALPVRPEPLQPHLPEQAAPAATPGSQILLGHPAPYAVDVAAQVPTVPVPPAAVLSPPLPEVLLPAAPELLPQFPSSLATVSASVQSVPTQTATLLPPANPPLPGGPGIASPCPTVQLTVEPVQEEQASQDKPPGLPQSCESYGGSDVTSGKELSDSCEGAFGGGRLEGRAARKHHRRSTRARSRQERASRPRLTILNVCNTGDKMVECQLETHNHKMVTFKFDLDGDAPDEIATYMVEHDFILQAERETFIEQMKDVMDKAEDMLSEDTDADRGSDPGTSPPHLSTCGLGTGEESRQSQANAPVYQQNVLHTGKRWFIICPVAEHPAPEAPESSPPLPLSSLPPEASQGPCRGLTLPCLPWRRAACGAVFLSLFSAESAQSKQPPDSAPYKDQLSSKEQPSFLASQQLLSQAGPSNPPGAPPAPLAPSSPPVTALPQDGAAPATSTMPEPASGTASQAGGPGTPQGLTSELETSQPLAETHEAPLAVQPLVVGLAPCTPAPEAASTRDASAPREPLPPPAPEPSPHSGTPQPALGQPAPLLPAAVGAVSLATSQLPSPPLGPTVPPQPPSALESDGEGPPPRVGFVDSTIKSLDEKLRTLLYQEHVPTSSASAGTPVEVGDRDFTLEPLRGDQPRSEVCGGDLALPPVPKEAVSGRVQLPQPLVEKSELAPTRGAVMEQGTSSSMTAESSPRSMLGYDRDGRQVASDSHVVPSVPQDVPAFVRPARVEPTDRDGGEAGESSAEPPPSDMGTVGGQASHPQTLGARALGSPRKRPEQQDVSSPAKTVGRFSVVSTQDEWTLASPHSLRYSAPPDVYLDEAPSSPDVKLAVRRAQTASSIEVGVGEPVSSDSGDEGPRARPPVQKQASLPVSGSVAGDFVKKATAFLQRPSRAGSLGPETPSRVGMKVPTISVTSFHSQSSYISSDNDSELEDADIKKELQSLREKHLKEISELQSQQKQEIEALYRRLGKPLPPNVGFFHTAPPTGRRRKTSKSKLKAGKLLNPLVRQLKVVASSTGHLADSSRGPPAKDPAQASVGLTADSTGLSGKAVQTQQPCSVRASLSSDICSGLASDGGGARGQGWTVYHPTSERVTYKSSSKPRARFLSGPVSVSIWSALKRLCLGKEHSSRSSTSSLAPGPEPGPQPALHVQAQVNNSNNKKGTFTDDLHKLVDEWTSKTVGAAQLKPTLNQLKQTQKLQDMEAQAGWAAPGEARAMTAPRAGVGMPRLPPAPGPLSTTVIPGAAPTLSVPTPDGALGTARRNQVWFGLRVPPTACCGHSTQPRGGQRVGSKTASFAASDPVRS
Chain of Casein kinase I isoform gamma-2 (Homo sapiens) (P78368 whole entry, looked up, canonical isoform): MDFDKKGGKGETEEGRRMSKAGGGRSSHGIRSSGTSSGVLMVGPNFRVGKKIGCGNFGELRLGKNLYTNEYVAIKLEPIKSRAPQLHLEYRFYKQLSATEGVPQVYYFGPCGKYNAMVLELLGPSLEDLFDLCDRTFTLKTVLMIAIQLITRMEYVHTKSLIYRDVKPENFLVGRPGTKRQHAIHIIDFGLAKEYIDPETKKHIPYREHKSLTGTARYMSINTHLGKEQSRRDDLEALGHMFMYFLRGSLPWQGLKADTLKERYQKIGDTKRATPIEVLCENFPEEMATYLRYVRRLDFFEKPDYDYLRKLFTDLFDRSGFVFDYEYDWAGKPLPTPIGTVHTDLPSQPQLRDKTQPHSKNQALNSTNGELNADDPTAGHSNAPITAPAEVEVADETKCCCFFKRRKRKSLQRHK
Chain of Cyclin-dependent kinase 7 (P50613 whole entry): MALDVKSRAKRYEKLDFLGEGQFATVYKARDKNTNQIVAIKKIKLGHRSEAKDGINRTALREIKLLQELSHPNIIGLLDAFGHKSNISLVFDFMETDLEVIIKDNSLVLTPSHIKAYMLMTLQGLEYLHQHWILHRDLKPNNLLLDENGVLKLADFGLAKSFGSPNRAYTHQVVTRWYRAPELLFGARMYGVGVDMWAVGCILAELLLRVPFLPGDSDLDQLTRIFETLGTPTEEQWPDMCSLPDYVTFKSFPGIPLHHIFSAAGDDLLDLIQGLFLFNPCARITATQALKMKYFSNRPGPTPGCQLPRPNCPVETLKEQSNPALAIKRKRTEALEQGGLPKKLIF

In the case of `Cn1cc(-n2cnc3c(NCc4nc5cc(Cl)c(Cl)cc5[nH]4)nc(N4CCOCC4)nc32)cn1`, the % of control [1] is reported as 8.66% and the % of inhibition [2] is reported as -1.03%.

Work on `O=C(NOC[C@H](O)CO)c1ccc(F)c(F)c1Nc1ccc(I)cc1F` yielded a % of control [3] of 76%.

Compound `CNC(=O)Nc1ccc(-c2nc(N3CC4CCC(C3)O4)c3cnn(C4CCC5(CC4)OCCO5)c3n2)cc1` has a % of inhibition [4] of 1% and a % of control [5] of 77%.

With `Cc1ccc(-c2ccc3c(ccc4sc5c(c43)NC[C@@H](C)NC5=O)n2)cn1` the % of inhibition [6] was -1%.

In the case of `CCN(CC)CCCCNc1ncc2cc(-c3cc(OC)cc(OC)c3)c(NC(=O)NC(C)(C)C)nc2n1`, the % of control [7] is reported as 100%.

In the case of `CC[C@@H]1[C@H](F)C(=O)N[C@@H]1COc1nccc2cc(C(N)=O)c(OC)cc12` [ZIMLOVISERTIB], the % of inhibition ([8]; at 0.01 µM) is reported as -4.6%, the % of inhibition ([8]; at 0.04 µM) is reported as -11.3% and the % of inhibition ([8]; at 0.2 µM) is reported as -14.4%. The % of inhibition ([8]; at 1 µM) was 13.9%, the % of inhibition ([8]; at 5 µM) was 12.4% and the % of inhibition ([9]; at 0.01 µM) was -5.3%. It also gave a % of inhibition ([9]; at 0.04 µM) of 19.1%, a % of inhibition ([9]; at 0.2 µM) of -26.4% and a % of inhibition ([9]; at 1 µM) of 10.2%. It also gave a % of inhibition ([9]; at 5 µM) of 0.7%, a % of inhibition [10] of -0.3% and a % of inhibition ([11]; at 0.01 µM) of 10.1%. The % of inhibition ([11]; at 0.04 µM) was 23.3%, the % of inhibition ([11]; at 0.2 µM) was 9.7% and the % of inhibition ([11]; at 1 µM) was 3.1%. For the same compound, the % of inhibition ([11]; at 5 µM) was 3%.

With `COCC(=O)NC/C=C/c1ccc2ncnc(Nc3ccc(Oc4ccc(C)nc4)c(C)c3)c2c1` [CP-724714] the % of control [12] was 93%.

`COc1cc(Nc2nc(C)cc(-c3cnn4nc(OC)ccc34)n2)cc(C(F)(F)F)c1` gave a % of control [13] of 77% and a % of control [14] of 94%.

`CN(C)C/C=C/C(=O)Nc1ccc(C(=O)N2CCCC(Nc3ncc(Cl)c(-c4c[nH]c5ccccc45)n3)C2)cc1` (stereo unspecified) showed a % of control [15] of 64% and a % of control [16] of 99%.

`CN(C)CCOc1ccc(-c2nc(-c3ccncc3)c(-c3ccc4c(c3)CC/C4=N\O)[nH]2)cc1` gave a % of control [17] of 84%.

Work on `C=CC(=O)Nc1cc(-n2c(=O)ccc3cnc4ccc(-c5ccc(NS(C)(=O)=O)cc5)cc4c32)ccc1C` yielded a % of control [18] of 95%, a % of control ([19]; at 1 µM) of 100% and a % of control ([19]; at 10 µM) of 100%.

With `C=CC(=O)Nc1ccc(C(=O)Nc2[nH]nc3c2CN(C(=O)N[C@H](CN(C)C)c2ccccc2)C3(C)C)cc1` the % of engagement [20] was -14%.

With `Cc1cc(CN)cc(C)c1-c1ncn(C)c1-c1cncn1C` the % activity ([21]; at 1 µM) was > 90% and the % activity ([21]; at 10 µM) was > 80%.

For `COc1cc(N(C)c2ccnc3ccc(C(F)(F)F)cc23)cc(OC)c1OC`, the % binding [22] was 96% and the % binding [23] was 100%.

For `CCC(=O)N1CCN(c2ccc(-n3c(=O)ccc4cnc5ccc(-c6cnc7ccccc7c6)cc5c43)cc2C(F)(F)F)CC1`, the % of control [24] was 100%, the % of control [25] was 50% and the % of control [26] was 19%.

`N#Cc1cccc(-c2c[nH]c3ncnc(N4CCOCC4)c23)c1` gave a % of inhibition [27] of 74%.
